Assay results as given in PubChem BioAssay (NCI).
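Grown in 96-well plates, cells were treated for 48 hours with each compound at five concentrations. Insufficient inhibition: endpoint recorded as highest concentration tested. Definition used: TGI = concentration required for complete inhibition of growth.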

Experiments:
Experiment in all cases: inhibition of tumour cell growth, NCI panel, 48 h
CCRF-CEM leukemia = system: CCRF-CEM leukemia
OVCAR-4 ovarian = system: OVCAR-4 ovarian
MDA-MB-435 = system: MDA-MB-435
OVCAR-5 ovarian = system: OVCAR-5 ovarian
MOLT-4 leukemia = system: MOLT-4 leukemia
SK-OV-3 ovarian = system: SK-OV-3 ovarian
MDA-N = system: MDA-N
SF-539 CNS = system: SF-539 CNS
SF-268 CNS = system: SF-268 CNS
SF-295 CNS = system: SF-295 CNS

Compound | TGI (CCRF-CEM leukemia) | TGI (OVCAR-4 ovarian) | TGI (MDA-MB-435) | TGI (OVCAR-5 ovarian) | TGI (MOLT-4 leukemia) | TGI (SK-OV-3 ovarian) | TGI (MDA-N) | TGI (SF-539 CNS) | TGI (SF-268 CNS) | TGI (SF-295 CNS)
CCCC(CCN)(CCN)[N+](=O)[O-] | > 100 µM | > 100 µM | > 100 µM | > 100 µM | > 100 µM | > 100 µM | > 100 µM | > 100 µM | > 100 µM | > 100 µM
COc1ccc(C(C2=C(O)COC2=O)c2cc3c(cc2O)OCO3)cc1OC (stereo not given) | > 100 µM | > 100 µM | > 100 µM | > 100 µM | > 100 µM | > 100 µM | > 100 µM | > 100 µM | > 100 µM | > 100 µM
CN(C)/N=C1\CC(c2ccccc2)C(C#N)(C#N)C1(C#N)C#N (stereo not given) | > 100 µM | > 100 µM | 81.8 µM | 59.1 µM | 56.5 µM | > 100 µM | 40 µM | > 100 µM | 35.6 µM | 48.1 µM
CC(=O)N1CCn2c1nc1cc(Cl)ccc12 | > 100 µM | > 100 µM | > 100 µM | > 100 µM | > 100 µM | 68 µM | > 100 µM | > 100 µM | > 100 µM | > 100 µM
CC(=N\N)/C(C)=N/N=C(C)/C(C)=N/N=C(C)/C(C)=N/N | > 100 µM | > 100 µM | > 100 µM | > 100 µM | > 100 µM | > 100 µM | > 100 µM | > 100 µM | > 100 µM | > 100 µM
CC(C)C1N(C)c2ccc(Cl)cc2[C@H]2c3ccccc3CCN12 (stereo not given in full) | > 100 µM | > 100 µM | 61.6 µM | > 100 µM | > 100 µM | > 100 µM | 92 µM | > 100 µM | > 100 µM | > 100 µM
C[N+]1(CCN[N+]2(C)CCCCC2)CCc2ccccc2C1 (stereo not given) | > 100 µM | > 100 µM | > 100 µM | > 100 µM | > 100 µM | > 100 µM | > 100 µM | > 100 µM | > 100 µM | > 100 µM
C(=C\N1CCCCC1)/c1nnnn1-c1ccccc1 | 61.1 µM | > 100 µM | 66.1 µM | > 100 µM | 41.9 µM | 63.3 µM | > 100 µM | 76.6 µM | 84 µM | 66.9 µM
CC(C)(C)OC(=O)NCCCCC(NC(=O)c1ccccc1)C(N)=O (stereo not given) | > 100 µM | > 100 µM | > 100 µM | > 100 µM | > 100 µM | > 100 µM | > 100 µM | > 100 µM | > 100 µM | > 100 µM
COc1ccccc1C[C@@H]1OC2(C=CC(=O)C=C2)O[C@H]1Cc1ccccc1OC | 8.6 µM | 19.9 µM | 38.2 µM | 16.5 µM | > 50 µM | 24.5 µM | 21.7 µM | 15.6 µM | 16.9 µM | 22.9 µM
O=C1Nc2ccccc2/C1=c1\[nH]c(=O)/c(=C\c2ccc(OCc3ccccc3)cn2)[nH]c1=O | > 100 µM | > 100 µM | > 100 µM | > 100 µM | > 100 µM | > 100 µM | > 100 µM | 55.5 µM | > 100 µM | 50.5 µM
CC1CC(=O)N(N(C)C)C(C#N)(C#N)C1(C#N)C#N (stereo not given) | 4.8 µM | 33.4 µM | 32.9 µM | 51.8 µM | 5.04 µM | > 64.9 µM | 33.2 µM | 59.1 µM | > 58.9 µM | > 77.4 µM
NNC(=O)c1cc(=O)[nH][nH]1 | > 100 µM | > 100 µM | > 100 µM | > 100 µM | > 100 µM | > 100 µM | > 100 µM | > 100 µM | > 100 µM | > 100 µM
C/C1=C\C=C(\C(C)C)CC/C(C(=O)O)=C\CC/C(C)=C/CC1 | 41.8 µM | > 100 µM | 56.4 µM | 78 µM | 43.2 µM | 64 µM | 82 µM | 34.8 µM | > 100 µM | 47.9 µM
COc1cc(N(Cc2ccc3oc(=O)c(-c4ccccc4)nc3c2)Cc2ccc3oc(=O)c(-c4ccccc4)nc3c2)cc(OC)c1OC | > 10 µM | > 10 µM | > 10 µM | > 10 µM | > 10 µM | > 10 µM | > 10 µM | > 10 µM | > 10 µM | > 10 µM
COc1cc(C2c3cc4c(cc3OC(N3CCNCC3)C2C)OCO4)cc(OC)c1OC (stereo not given) | 17.7 µM | 21.6 µM | 1.1 µM | > 100 µM | 14.4 µM | > 23.4 µM | 0.652 µM | 1.94 µM | > 44.2 µM | 0.822 µM
CCN(CC)c1ccc(/C=C/C=C2C(=O)NC(=S)NC2=O)cc1 | > 100 µM | > 100 µM | 34.7 µM | > 100 µM | > 100 µM | > 100 µM | > 61.6 µM | 36.6 µM | > 100 µM | > 100 µM
CN(C)c1cc[n+](-c2nc(/N=C(\[O-])C(F)(F)F)nc3c2ncn3C2CC(O)C(CO)O2)cc1 (stereo not given) | > 100 µM | > 100 µM | > 100 µM | > 100 µM | > 100 µM | > 100 µM | > 100 µM | > 100 µM | > 100 µM | > 100 µM
CCOc1cc(NC(C)=O)ccc1C(=O)NN1C(=O)CSC1c1ccccc1 (stereo not given) | > 100 µM | > 100 µM | > 100 µM | > 100 µM | 58.2 µM | > 100 µM | > 100 µM | > 100 µM | > 100 µM | > 100 µM
